US12551482B2, “Aurora kinase inhibitors” (The Regents of the University of California, priority 2013, dated 2026)

Key:
SK-HEP-1 = experiment: Cancer cell line profiling, Genomics of Drug Sensitivity Project; settings: Homo sapiens, SK-HEP1, read-out: CD532 EC50 (uM)
SCH = experiment: as above; settings: read-out: CD532 EC50 (uM)
BICR 10 = experiment: as above; settings: read-out: CD532 EC50 (uM)
JHH-2 = experiment: as above; settings: JHH-2, read-out: CD532 EC50 (uM)
HPAC = experiment: as above; settings: Homo sapiens, read-out: CD532 EC50 (uM)
JHH-4 = experiment: as above; settings: JHH-4, read-out: CD532 EC50 (uM)
JHH-1 = experiment: as above; settings: JHH1, read-out: CD532 EC50 (uM)
DJM-1 = experiment: as above; settings: read-out: CD532 EC50 (uM)
tumor-derived cell lines = experiment: Screen of panel of tumor-derived, genetically characterized cell lines; format: cell-based
MYCN [1] = experiment: MYCN-amplified neuroblastoma xenografts, MYCN protein in tumors; format: in vivo; settings: mice treated daily for 2 days with 60 mg/kg
Method: Mice were injected intraperitoneally as described. For determining tumor volume, for example in medulloblastoma model mice, mice were euthanized once maximum tumor length exceeded 2.0 cm, per IACUC protocol (IACUC, Institutional Animal Care and Use Committee).

KP-N-YS = experiment: Cancer cell line profiling, Genomics of Drug Sensitivity Project; settings: read-out: CD532 EC50 (uM)
CL-11 = experiment: as above; settings: CL-11, read-out: CD532 EC50 (uM)
SNU-423 = experiment: as above; settings: Homo sapiens, SNU-423, read-out: CD532 EC50 (uM)
OVKATE = experiment: as above; settings: read-out: CD532 EC50 (uM)
AGS = experiment: as above; settings: Homo sapiens, read-out: CD532 EC50 (uM)
K5 = experiment: as above; settings: read-out: CD532 EC50 (uM)
UACC-257 = experiment: as above; settings: Homo sapiens, UACC-257, read-out: CD532 EC50 (uM)
phospho-pan-Aurora = experiment: Phospho-pan-Aurora by flow cytometry; format: cell-based; settings: 1 μM, 6 hrs (FIG. 6C)
Method: Neuroblastoma cells were treated for the indicated time, trypsinized, washed, stained with Dylight 800 at 0.3 μg/mL (Pierce, 46421), fixed with 1.5% PFA, and permeabilized with 100% methanol. Cells were then stained with antibodies against p-MPM2 (Millipore, 16-155), p-pan-Aurora (Cell Signaling, 2914), MYCN (Thermo, PA5-17403), rabbit IgG (Invitrogen, A10542), or mouse IgG (BioLegend, 405307). Cells were stained with DAPI at 0.3 μg/mL (Invitrogen, D21490) and analyzed on the BD LSR II flow cytometer. For cell cycle analysis, cells were stimulated with EdU for 2 hours prior to harvest, then probed using the Click-iT EdU Flow Cytometry Assay Kit (Invitrogen, C10424). Cells were stained with propidium iodide (BD, 556547) and analyzed on the BD FACSCalibur flow cytometer. Data was gated using Cytobank. For viability studies, neuroblastoma cells were plated in 96-well plates at a density of 1,000 cells/well for SHEP or 4,000 cells/well for Kelly or SK—N-BE2 cells, then incubated with indicated concentrations of drug for 72 hours at 37° C. Plates were frozen at −80° C. to induce cell lysis. CyQUANT reagent mixture (Invitrogen, C7026) was added to thawed plates, then fluorescence was measured. Alternatively, resazurin (Sigma-Aldrich, R7017) was added directly to wells following drug treatment then incubated for 4 hours at 37° C. prior to measuring fluorescence. Data was analyzed using GraphPad Prism software.

SNU-61 = experiment: Cancer cell line profiling, Genomics of Drug Sensitivity Project; settings: read-out: CD532 EC50 (uM)
phospho-histone H3 = experiment: Screen of Kelly MYCN-amplified cells, western blot for phospho-histone H3; format: cell-based; settings: 1 μM, 24 hrs
Method: (§1) Neuroblastoma tumor cell lines were obtained from the University of California San Francisco Cell Culture Facility (Kelly, SK-N-BE2, and SH-EP). SMS-KCN, SHEP MYCN^wt and MYCN^T58A/S62A cells were obtained. All cells were grown in RPMI with 10% FBS. Neuroblastoma cells were harvested and lysed with Cell Signaling Lysis buffer+1% SDS, sonicated and supernatants boiled in LDS sample buffer (Invitrogen). Western blots were performed as described previously (Chanthery et al., 2012), with primary antibodies to MYCN (ab24193, Abcam), Histone H3, P-Histone H3 (S10), Aurora A (Cell signaling), and GAPDH (Millipore). Western blot quantitation performed with ImageJ software.
(§2) To test whether this panel of 32 putative conformation-disrupting Aurora A inhibitors would destabilize MYCN, initially Kelly MYCN-amplified neuroblastoma cells were treated with candidate inhibitors and MYCN protein was measured by western blot. Phosphorylation of Histone H3, a known substrate for Aurora A and B and a marker for mitosis, was also assessed. FIGS. 1B and 5 show decreased levels of both MYCN protein and p-Histone H3 in response to several members of the screening panel (quantitated in FIG. 1).

MYCN [2] = experiment: Screen of Kelly MYCN-amplified cells, western blot for MYCN; format: cell-based; settings: 1 μM, 24 hrs
Method: as §1, §2

NB5 = experiment: Cancer cell line profiling, Genomics of Drug Sensitivity Project; settings: read-out: CD532 EC50 (uM)
HT-144 = experiment: as above; settings: Homo sapiens, HT-144, read-out: CD532 EC50 (uM)

Compound O=C(Nc1ccc(Nc2nccc(Nc3cc(C4CCCC4)[nH]n3)n2)cc1)Nc1cccc(C(F)(F)F)c1 [CD532, 1-(4-((4-((5-cyclopentyl-1H-pyrazol-3-yl)amino)pyrimidin-2-yl)amino)phenyl)-3-(3-(trifluoromethyl)phenyl)urea] has an EC50 (SK-HEP-1) of 1.6 µM, an EC50 (SCH) of 1.24 µM and an EC50 (BICR 10) of 4.27 µM. It also gave an EC50 (JHH-2) of 0.543 µM, an EC50 (HPAC) of 2.5 µM and an EC50 (JHH-4) of 1.35 µM. The EC50 (JHH-1) was 0.295 µM, the EC50 (DJM-1) was 0.427 µM and the “susceptibility of MYCN amplified vs non-amplified cell lines” value (tumor-derived cell lines; Wilcoxon Rank Sum test) was “significantly more susceptible to CD532 than non-amplified lines”. For the same compound, the “EC50 values across the panel” value (tumor-derived cell lines; most cell lines) was “nanomolar range”, the “MYCN protein in tumors” value (MYCN [1]) was “decreased levels of MYCN protein” and the EC50 (KP-N-YS) was 0.27 µM. The EC50 (CL-11) was 4.93 µM, the EC50 (SNU-423) was 0.753 µM and the EC50 (OVKATE) was 6 µM. It also gave an EC50 (AGS) of 0.346 µM, an EC50 (K5) of 1.33 µM and an EC50 (UACC-257) of 0.607 µM. The phospho-pan-Aurora (phospho-pan-Aurora) was “loss of phospho-pan-Aurora”, the EC50 (SNU-61) was 1.02 µM and the “p-Histone H3 level” value (phospho-histone H3) was “decreased levels of both MYCN and p-Histone H3 proteins”. The MYCN protein level (MYCN [2]) was “decreased levels of both MYCN and p-Histone H3 proteins”, the EC50 (NB5) was 0.761 µM and the EC50 (HT-144) was 0.366 µM.
